In patent publication US20240336642A1 (The General Hospital Corporation, priority 2021, published 2024):
pEC50, pIC50: −log10 of the molar value.

Experiments:
[1] = system: experimental stroke model in mice (MCAO); experiment: Long-term outcome after MCAO: adhesive (tape) removal test; format: in vivo, mouse; details: 40 mg/kg i.v. 2 hours post reperfusion
Method: (§1) Long-term outcome experiment: 40 mg/kg cmpd. 1 delivered I.V. 2 hours post reperfusion, same as short term, compared to vehicle (10% solutol/90% PEG400). 45 mice operated, and 27 survived, mice were sacrificed on day 30.

COX-2 = COX-2 (Homo sapiens (Human), UniProt P35354); experiment: Selectivity versus COX-2; format: biochemical
[2] = system: experimental stroke model in mice (MCAO); experiment: Long-term outcome after MCAO: Garcia score; format: in vivo, mouse; details: 40 mg/kg i.v. 2 hours post reperfusion
Method: as §1

SAH wild-type mice = experiment: Subarachnoid hemorrhage (SAH) mouse model; format: in vivo; details: wild-type mice with SAH
Description: The effect of the exemplified compounds (which are, e.g., inhibitors of 12/15-LOX as discussed herein) on treating bran injury after subarachnoid hemorrhage can be assessed in a mouse model as described, for example, in Gaberel et al, Stroke, 2019, 50, 520-523, which is incorporated herein by reference in its entirety. Subarachnoid hemorrhage (SAH) is a devastating form of stroke. It may lead to substantial brain injury. The mouse model to study the impact of 12/15-LOX inhibitors on subarachnoid hemorrhage includes C57Bl6 wild-type mice and Alox15 knockout mice. These mice are subjected to SAH using direct blood injection technique. […] Immunohistochemistry, brain edema, blood-brain barrier leakage and functional outcomes were assessed 1 and 3 days after SAH induction. […]
All animal experiments were performed following protocols approved by the Massachusetts General Hospital Institutional Animal Care and Use Committee in accordance with the National Institutes of Health Guide for the Care and Use of Laboratory Animals. […] Sample sizes were evaluated as follows: based on prior experience, coefficients of variation around 35% between mice are expected. […]
Except the mice used for IHC 24 h after SAH induction, all mice were assessed at 72 hours using a 4-point Neuroscore scale, a 18 point Neuroscore scale, and by evaluating spontaneous activity. […]

[3] = Aqueous solubility of exemplified compounds (Example 3); format: physicochemical; details: aqueous solubility
[4] = system: experimental stroke model in mice (MCAO); experiment: Long-term outcome after MCAO: foot fault test; format: in vivo, mouse; details: 40 mg/kg i.v. 2 hours post reperfusion
Method: as §1

COX-1 = experiment: Selectivity versus COX-1; format: biochemical
15-LOX2 = 15-LOX2 (Homo sapiens (Human), UniProt O15296); experiment: Selectivity versus 15-LOX2; format: biochemical
Mouse 12/15-LOX E. coli = Mouse 12/15-LOX E. coli (Mus musculus (Mouse), UniProt P39654); experiment: Mouse 12/15-LOX E. coli IC50; format: biochemical
Rat Primary Neuron = Rat Primary Neuron EC50; format: cell-based
[5] = system: experimental stroke model in mice (MCAO); experiment: Long-term outcome after MCAO: Y maze; format: in vivo, mouse; details: 40 mg/kg i.v. 2 hours post reperfusion, versus vehicle
Method: as §1

h12/15-LOX = h12/15-LOX (Homo sapiens (Human), UniProt P16050); experiment: 12/15-LOX enzyme inhibition IC50 assay (Examples 1 and 2); format: biochemical
Method: Enzyme was then added to the cuvettes. […] The % inhibition for each test compound concentration were calculated as follows: […]

Mouse HT22 = Mouse HT22 EC50; format: cell-based; details: HT-22
5-LOX = 5-LOX (Homo sapiens (Human), UniProt P09917); experiment: Selectivity versus 5-LOX; format: biochemical
12-LOX = 12-LOX (Homo sapiens (Human), UniProt P18054); experiment: Selectivity versus 12-LOX; format: biochemical
Human 12/15-LOX HEK = Human 12/15-LOX HEK (Homo sapiens (Human), UniProt P16050); experiment: Human 12/15-LOX HEK EC50; format: cell-based
[6] = system: experimental stroke model in mice (MCAO); experiment: Long-term outcome after MCAO: corner test; format: in vivo, mouse; details: 40 mg/kg i.v. 2 hours post reperfusion
Method: as §1

Chain of Mouse 12/15-LOX E. coli (P39654 whole entry): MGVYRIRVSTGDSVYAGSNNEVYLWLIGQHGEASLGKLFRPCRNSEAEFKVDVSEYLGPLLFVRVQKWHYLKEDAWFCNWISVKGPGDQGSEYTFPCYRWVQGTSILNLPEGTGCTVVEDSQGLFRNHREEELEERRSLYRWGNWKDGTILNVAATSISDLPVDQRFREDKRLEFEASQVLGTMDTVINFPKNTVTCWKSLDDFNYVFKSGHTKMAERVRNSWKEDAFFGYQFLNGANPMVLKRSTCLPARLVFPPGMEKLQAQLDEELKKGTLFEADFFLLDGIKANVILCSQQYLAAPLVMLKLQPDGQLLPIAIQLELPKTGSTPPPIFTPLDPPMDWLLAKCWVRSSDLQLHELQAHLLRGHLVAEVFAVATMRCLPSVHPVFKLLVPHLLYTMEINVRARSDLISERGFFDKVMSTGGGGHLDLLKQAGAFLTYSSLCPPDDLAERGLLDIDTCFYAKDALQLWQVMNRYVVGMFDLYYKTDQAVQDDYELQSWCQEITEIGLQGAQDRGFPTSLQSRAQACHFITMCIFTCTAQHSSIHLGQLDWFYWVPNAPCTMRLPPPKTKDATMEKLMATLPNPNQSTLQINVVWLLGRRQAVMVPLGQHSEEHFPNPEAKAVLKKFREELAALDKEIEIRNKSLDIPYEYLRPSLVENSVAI
Chain of h12/15-LOX (P16050 whole entry): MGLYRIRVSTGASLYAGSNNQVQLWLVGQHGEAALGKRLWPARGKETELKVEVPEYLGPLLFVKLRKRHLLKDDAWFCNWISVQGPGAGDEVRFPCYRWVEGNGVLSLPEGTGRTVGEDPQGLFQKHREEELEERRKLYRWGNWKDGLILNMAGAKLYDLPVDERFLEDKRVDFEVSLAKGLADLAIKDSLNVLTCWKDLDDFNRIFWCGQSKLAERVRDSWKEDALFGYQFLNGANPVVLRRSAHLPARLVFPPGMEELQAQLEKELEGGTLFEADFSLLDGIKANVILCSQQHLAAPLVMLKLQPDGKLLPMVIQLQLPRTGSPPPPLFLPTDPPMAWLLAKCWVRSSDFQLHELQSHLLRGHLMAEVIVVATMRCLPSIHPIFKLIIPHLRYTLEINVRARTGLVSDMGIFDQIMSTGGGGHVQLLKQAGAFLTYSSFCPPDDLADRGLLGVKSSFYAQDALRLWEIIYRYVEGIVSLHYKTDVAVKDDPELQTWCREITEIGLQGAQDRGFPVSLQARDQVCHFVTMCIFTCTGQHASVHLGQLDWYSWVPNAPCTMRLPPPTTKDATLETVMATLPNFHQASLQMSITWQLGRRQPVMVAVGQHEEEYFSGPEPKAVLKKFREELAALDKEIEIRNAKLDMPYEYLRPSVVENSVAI
Chain of 15-LOX2 (O15296 whole entry): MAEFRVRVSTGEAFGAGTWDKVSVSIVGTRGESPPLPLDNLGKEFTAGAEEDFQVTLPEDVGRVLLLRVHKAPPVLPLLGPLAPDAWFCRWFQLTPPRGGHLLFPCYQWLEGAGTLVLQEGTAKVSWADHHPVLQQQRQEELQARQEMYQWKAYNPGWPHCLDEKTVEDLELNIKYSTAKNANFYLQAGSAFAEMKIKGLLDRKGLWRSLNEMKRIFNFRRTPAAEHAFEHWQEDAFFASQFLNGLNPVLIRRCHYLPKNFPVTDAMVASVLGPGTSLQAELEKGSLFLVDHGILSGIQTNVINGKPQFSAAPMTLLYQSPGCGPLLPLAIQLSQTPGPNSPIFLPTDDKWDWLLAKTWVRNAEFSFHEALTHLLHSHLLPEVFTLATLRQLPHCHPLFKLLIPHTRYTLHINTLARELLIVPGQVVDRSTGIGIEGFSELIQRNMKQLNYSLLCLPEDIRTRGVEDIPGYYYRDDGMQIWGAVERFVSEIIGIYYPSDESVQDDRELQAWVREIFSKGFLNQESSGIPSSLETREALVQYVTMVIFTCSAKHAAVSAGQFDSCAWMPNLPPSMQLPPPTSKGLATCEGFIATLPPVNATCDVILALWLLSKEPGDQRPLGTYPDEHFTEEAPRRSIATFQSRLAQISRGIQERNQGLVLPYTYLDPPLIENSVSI
Chain of 12-LOX (P18054 whole entry): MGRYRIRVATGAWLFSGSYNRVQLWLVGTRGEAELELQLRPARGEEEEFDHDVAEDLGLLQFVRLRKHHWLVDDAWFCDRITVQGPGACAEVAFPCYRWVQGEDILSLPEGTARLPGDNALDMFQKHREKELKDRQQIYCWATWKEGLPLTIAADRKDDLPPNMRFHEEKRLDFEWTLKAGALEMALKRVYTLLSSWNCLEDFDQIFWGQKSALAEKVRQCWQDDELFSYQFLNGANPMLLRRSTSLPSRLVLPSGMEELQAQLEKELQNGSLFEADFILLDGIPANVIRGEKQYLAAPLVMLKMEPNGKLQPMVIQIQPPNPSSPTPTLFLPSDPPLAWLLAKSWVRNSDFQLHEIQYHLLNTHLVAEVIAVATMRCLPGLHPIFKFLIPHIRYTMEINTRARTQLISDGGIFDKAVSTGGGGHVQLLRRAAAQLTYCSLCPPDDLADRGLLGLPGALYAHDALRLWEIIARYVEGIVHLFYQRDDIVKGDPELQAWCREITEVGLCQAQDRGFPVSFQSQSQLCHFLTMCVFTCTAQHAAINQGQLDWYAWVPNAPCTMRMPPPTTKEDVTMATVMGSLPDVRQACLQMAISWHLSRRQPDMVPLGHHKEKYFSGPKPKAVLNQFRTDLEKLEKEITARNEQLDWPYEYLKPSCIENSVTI
Chain of COX-2 (P35354 18-604): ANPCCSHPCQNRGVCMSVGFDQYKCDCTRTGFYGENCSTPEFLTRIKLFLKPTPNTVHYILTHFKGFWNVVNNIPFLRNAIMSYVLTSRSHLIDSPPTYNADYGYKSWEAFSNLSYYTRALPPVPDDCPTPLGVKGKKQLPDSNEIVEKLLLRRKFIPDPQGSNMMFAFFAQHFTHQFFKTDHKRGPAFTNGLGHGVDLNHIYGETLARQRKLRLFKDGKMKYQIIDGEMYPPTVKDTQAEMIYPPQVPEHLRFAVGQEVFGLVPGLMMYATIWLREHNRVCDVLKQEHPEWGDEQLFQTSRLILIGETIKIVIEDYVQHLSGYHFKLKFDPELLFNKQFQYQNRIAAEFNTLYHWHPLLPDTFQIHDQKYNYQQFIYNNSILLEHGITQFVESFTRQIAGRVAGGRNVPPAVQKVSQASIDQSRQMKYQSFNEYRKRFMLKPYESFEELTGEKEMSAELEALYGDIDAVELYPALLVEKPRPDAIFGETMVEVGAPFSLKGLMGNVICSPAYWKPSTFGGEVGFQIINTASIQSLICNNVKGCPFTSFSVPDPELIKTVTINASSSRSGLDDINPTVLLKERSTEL
Chain of 5-LOX (P09917 whole entry): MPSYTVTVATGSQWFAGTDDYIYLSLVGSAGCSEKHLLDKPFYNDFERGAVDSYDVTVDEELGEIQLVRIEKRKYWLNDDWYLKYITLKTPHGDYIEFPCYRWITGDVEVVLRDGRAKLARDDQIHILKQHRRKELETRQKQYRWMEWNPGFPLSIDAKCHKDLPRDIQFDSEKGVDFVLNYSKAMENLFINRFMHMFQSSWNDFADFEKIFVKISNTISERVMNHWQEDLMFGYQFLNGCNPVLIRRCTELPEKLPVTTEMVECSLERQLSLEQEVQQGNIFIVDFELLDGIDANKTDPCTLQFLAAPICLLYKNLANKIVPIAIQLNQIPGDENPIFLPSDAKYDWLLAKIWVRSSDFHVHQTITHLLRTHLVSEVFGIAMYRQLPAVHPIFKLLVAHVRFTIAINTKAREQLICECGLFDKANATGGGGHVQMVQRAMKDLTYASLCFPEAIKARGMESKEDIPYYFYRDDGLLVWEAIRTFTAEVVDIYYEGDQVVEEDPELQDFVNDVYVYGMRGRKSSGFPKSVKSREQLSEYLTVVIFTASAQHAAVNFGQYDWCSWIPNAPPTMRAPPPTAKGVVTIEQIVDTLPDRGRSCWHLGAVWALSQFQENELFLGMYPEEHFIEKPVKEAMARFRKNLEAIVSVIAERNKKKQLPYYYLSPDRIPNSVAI
Chain of Human 12/15-LOX HEK (P16050 whole entry, the tested form may be a part): as the sequence (P16050 whole entry) above

CNc1oc(-c2cc(Cl)cc(Cl)c2Cl)nc1C#N [Compound 1, 5-(methylamino)-2-(2,3,5-trichlorophenyl) oxazole-4-carbonitrile]
Adhesive (tape) removal test, improvement compared to vehicle treatment ([1]; Week 1): 65.6% | Adhesive (tape) removal test, improvement compared to vehicle treatment ([1]; Week 4): 93.3% | selectivity over COX-2 (COX-2): > 400 fold | Garcia score, improvement compared to vehicle treatment ([2]; Day 3): 23.8% | Garcia score, improvement compared to vehicle treatment ([2]; Week 4): 68.5% | Neuronal cell death after SAH (SAH wild-type mice): reduced | Sol [3]: + (“+” < 10 μM) | Foot fault test, improvement compared to vehicle treatment ([4]; Week 1): 61.7% | Foot fault test, improvement compared to vehicle treatment ([4]; Week 4): 77.0% | selectivity over COX-1 (COX-1): > 400 fold | selectivity over 15-LOX2 (15-LOX2): > 400 fold | pIC50 (Mouse 12/15-LOX E. coli): 6.74 | Mouse 12/15-LOX E. coli % max (Mouse 12/15-LOX E. coli): 82% | pEC50 (Rat Primary Neuron): 5.02 | Y maze % alternation [5]: no significant differences | Y maze entry number [5]: no difference between treatment groups | pIC50 (h12/15-LOX): 6.92 | Emax (h12/15-LOX; h12/15-LOX, read-out: Max % inhibition): 94% | pEC50 (Mouse HT22): 5.30 | selectivity over 5-LOX (5-LOX): > 400 fold | selectivity over 12-LOX (12-LOX): > 400 fold | pEC50 (Human 12/15-LOX HEK): 6.04 | Corner test, improvement compared to vehicle treatment ([6]; Week 1): 68.7% | Corner test, improvement compared to vehicle treatment ([6]; Week 4): 75.4%
